Measurements published in patent US8106045B2, “2-morpholino-4-pyrimidone compound” (Mitsubishi Tanabe Pharma Corporation, priority 2004, dated 2012).
pIC50: −log10 of the molar value.

Target: T1, bovine cerebral TPK1 (Bos taurus, UniProt A0A3Q1MT31)
T1 construct: bovine cerebral TPK1; from tissue; host or cells: bovine cerebrum (brain)
Assay: Inhibitory activity against P-GS1 phosphorylation by bovine cerebral TPK1
Type: biochemical
Conditions: 41.7 μM [γ-32P] ATP, 25° C. for 2 hours
Experimental: Experiment 1: Inhibitory Activity of the Medicament of the Present Invention Against P-GS1 Phosphorylation by Bovine Cerebral TPK1
A mixture containing 100 mM MES-sodium hydroxide (pH 6.5), 1 mM magnesium acetate, 0.5 mM EGTA, 5 mM B-mercaptoethanol, 0.02% Tween 20, 10% glycerol, 12 μg/ml P-GS1, 41.7 μM [γ-^32P] ATP (68 kBq/ml), bovine cerebral TPK1 and a compound shown in Table (a final mixture contained 1.7% DMSO deriving from a solution of a test compound prepared in the presence of 10% DMSO) was used as a reaction system. The phosphorylation was started by adding ATP, and the reaction was conducted at 25° C. for 2 hours, and then stopped by adding 21% perchloric acid on ice cooling. The reaction mixture was centrifuged at 12,000 rpm for 5 minutes and adsorbed on P81 paper (Whatmann), and then the paper was washed four times with 75 mM phosphoric acid, three times with water and once with acetone. The paper was dried, and the residual radioactivity was measured using a liquid scintillation counter.

T1 sequence (A0A3Q1MT31 1-419): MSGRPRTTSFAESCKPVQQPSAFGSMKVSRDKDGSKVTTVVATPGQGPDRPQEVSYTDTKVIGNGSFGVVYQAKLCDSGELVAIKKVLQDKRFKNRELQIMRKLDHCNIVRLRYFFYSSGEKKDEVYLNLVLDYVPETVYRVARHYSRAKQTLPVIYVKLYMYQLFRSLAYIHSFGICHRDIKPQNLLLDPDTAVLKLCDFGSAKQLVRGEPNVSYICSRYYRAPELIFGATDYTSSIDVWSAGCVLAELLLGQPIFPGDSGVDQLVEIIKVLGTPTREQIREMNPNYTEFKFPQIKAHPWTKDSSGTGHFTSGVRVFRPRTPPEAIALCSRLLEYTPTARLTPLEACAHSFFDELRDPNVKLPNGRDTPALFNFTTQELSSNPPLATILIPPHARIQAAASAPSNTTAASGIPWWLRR

Work on CN(c1ccc([C@H]2CN(c3nc(-c4ccncn4)cc(=O)n3C)CCO2)cc1)[C@@H]1CCOC1 [Compound No. 091, 2-((2S)-2-(4-(N-methyl-N-((3R)-tetrahydrofuran-3yl)amino)phenyl)morpholin-4-yl)-3-methyl-6-(pyrimidin-4-yl)-3H-pyrimidin-4-one] yielded a pIC50 of 8.21.
Cn1c(N2CCO[C@@H](c3ccc(OCCCN4CCCC4)cc3)C2)nc(-c2ccncn2)cc1=O [Compound No. 202, 2-((2S)-2-(4-(3-(pyrrolidin-1-yl)propyloxy)phenyl)morpholine-4-yl)-3-methyl-6-(pyrimidin-4-yl)-pyrimidin-4-one] showed a pIC50 of 9.37.
For Cn1c(N2CCO[C@@H](c3ccc(C(=O)NCCO)cc3)C2)nc(-c2ccncn2)cc1=O [Compound No. 210, N-(2-hydroxy-ethyl)-4-[(2S)-4-(1-methyl-6-oxo-1,6-dihydro-[4,4′]bipyrimidinyl-2-yl)-morpholin-2-yl]-benzamide], the pIC50 was 8.27.
In the case of CN(C)CC(=O)Nc1ccc([C@H]2CN(c3nc(-c4ccncn4)cc(=O)n3C)CCO2)cc1 [Compound No. 220, N^2,N^2-Dimethyl-N^1-{4-[(2S)-4-(1-methyl-6-oxo-1,6-dihydro-4,4′-bipyrimidin-2-yl)morpholin-2-yl]phenyl}glycinamide], the pIC50 was 9.32.
For COC(=O)Nc1ccc([C@H]2CN(c3nc(-c4ccncc4)cc(=O)n3C)CCO2)cc1 [Compound No. 231, Methyl (4-((2S)-4-(3-methyl-4-oxo-6-(pyridin-4-yl)-3H-pyrimidin-2-yl)morpholin-2-yl)-phenyl)carbamate], the pIC50 was 8.24.
CN(C)C(=O)Nc1ccc([C@H]2CN(c3nc(-c4ccncc4)cc(=O)n3C)CCO2)cc1 [Compound No. 237, 1,1-Dimethyl-3-{4-[4-(1-methyl-6-oxo-4-pyridin-4-yl-1,6-dihydro-pyrimidin-2-yl)-morpholin-2-yl]-phenyl}-urea] gave a pIC50 of 8.01.
Cn1c(N2CCO[C@@H](c3ccc(N4CCC(N5CCCC5)CC4)cc3)C2)nc(-c2ccncc2)cc1=O [compound 6] gave a pIC50 of 8.47.
Cn1c(N2CCO[C@@H](c3ccc(Nc4ccncc4)cc3)C2)nc(-c2ccncc2)cc1=O [compound 50] gave a pIC50 of 8.32.
Compound Cn1c(N2CCO[C@@H](c3ccc(NC(=O)c4ccccc4)cc3)C2)nc(-c2ccncc2)cc1=O [compound 70] has a pIC50 of 8.29.
Work on Cn1c(N2CCO[C@@H](c3ccc(NC(=O)CN4CCN(c5ccccc5)CC4)cc3)C2)nc(-c2ccncc2)cc1=O [compound 100] yielded a pIC50 of 8.28.
